Source: ChEMBL document CHEMBL3991601, “The target landscape of clinical kinase drugs” (Science, 2017)
Calls of active or inactive are those of the source. Rule as the data show it: actives have a measured Kd and inactives only a lower limit.

Tests used:
[1] = biological target: T1, Cyclin-G-associated kinase (Homo sapiens, UniProt O14976)
T1 sequence (O14976 whole entry): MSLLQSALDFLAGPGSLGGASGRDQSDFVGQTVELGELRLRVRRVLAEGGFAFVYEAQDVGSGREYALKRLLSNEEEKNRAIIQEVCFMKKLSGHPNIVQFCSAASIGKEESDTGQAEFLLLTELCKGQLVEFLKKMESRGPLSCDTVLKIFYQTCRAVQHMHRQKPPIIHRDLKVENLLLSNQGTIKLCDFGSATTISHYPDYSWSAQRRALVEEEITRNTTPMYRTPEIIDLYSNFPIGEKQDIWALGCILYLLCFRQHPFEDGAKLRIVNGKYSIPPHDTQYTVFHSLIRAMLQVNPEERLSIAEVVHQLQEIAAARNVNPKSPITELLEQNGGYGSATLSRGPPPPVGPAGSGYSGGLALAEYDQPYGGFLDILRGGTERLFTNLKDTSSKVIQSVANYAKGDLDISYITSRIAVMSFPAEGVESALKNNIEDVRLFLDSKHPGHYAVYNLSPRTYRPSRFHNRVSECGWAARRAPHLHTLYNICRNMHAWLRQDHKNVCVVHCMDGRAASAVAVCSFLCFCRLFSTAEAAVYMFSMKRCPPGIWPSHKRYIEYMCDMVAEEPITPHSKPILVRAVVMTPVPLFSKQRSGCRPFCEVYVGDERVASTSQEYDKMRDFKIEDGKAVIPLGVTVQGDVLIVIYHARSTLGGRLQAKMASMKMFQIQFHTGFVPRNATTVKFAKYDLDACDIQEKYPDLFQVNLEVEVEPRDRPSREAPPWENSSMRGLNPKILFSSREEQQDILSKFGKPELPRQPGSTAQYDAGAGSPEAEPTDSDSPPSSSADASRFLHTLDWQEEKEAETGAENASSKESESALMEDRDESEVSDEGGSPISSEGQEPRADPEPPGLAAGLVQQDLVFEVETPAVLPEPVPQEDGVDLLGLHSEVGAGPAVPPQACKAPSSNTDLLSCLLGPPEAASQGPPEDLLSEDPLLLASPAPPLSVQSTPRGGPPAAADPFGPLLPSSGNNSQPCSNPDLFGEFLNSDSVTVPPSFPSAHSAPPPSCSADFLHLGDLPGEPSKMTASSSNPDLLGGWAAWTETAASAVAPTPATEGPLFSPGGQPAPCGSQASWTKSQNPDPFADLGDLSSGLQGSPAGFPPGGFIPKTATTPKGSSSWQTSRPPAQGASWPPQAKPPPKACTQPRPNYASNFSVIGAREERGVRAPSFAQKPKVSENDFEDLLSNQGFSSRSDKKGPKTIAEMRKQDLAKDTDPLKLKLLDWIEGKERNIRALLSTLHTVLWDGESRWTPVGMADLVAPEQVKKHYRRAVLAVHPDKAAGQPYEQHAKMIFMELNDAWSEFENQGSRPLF

[2] = biological target: Protein kinase C alpha type (Homo sapiens, UniProt P17252)
[3] = biological target: T2, Non-receptor tyrosine-protein kinase TNK1 (Homo sapiens, UniProt Q13470)
T2 sequence (Q13470 whole entry): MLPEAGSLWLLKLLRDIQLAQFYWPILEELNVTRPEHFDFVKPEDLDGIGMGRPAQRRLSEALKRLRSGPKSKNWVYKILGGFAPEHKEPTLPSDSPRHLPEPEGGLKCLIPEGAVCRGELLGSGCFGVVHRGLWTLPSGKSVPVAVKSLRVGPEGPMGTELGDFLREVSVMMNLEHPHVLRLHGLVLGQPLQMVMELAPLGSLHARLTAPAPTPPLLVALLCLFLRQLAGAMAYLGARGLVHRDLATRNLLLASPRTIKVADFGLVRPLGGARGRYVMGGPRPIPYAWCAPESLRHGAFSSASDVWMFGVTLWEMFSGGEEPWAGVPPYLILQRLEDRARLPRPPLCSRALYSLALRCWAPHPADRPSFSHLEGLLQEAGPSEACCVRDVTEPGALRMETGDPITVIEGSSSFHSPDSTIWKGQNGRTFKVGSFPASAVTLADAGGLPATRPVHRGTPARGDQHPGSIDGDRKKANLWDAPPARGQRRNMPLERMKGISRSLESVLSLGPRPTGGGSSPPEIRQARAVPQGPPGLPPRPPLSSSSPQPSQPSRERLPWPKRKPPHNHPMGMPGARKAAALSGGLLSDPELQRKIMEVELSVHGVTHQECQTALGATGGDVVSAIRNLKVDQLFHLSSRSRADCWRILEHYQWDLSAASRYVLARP

[4] = biological target: 5'-AMP-activated protein kinase catalytic subunit alpha-1 (Homo sapiens, UniProt Q13131)
[5] = biological target: T3, Ephrin type-B receptor 4 (Homo sapiens, UniProt P54760)
T3 sequence (P54760 whole entry): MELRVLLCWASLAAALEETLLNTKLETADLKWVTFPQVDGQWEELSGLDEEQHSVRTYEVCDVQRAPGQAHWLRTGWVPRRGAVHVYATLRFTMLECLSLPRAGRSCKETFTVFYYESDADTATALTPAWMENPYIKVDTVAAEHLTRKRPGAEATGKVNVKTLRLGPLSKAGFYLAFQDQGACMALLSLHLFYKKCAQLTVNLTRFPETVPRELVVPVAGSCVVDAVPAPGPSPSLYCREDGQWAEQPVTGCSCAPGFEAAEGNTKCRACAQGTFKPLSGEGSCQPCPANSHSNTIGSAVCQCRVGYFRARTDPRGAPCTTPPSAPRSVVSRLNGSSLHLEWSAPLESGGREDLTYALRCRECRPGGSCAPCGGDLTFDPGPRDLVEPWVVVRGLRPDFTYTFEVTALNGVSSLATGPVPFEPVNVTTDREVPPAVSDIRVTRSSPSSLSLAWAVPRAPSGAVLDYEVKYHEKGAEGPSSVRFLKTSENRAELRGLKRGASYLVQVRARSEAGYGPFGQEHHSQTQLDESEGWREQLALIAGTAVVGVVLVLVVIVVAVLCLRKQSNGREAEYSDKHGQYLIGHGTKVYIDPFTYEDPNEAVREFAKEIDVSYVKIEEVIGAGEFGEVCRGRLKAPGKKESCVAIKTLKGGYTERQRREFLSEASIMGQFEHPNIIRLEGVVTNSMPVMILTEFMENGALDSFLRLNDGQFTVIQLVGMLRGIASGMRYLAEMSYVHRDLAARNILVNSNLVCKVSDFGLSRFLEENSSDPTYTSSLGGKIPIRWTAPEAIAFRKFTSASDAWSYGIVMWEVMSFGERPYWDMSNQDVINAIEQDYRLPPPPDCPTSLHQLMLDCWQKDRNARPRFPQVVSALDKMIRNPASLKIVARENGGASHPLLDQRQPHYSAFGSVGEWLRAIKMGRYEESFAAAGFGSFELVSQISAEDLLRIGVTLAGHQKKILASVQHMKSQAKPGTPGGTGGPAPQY
Also: in the data inactive means no Kd found up to 30 µM.

5'-AMP-activated protein kinase catalytic subunit alpha-1, sequence (Q13131 whole entry): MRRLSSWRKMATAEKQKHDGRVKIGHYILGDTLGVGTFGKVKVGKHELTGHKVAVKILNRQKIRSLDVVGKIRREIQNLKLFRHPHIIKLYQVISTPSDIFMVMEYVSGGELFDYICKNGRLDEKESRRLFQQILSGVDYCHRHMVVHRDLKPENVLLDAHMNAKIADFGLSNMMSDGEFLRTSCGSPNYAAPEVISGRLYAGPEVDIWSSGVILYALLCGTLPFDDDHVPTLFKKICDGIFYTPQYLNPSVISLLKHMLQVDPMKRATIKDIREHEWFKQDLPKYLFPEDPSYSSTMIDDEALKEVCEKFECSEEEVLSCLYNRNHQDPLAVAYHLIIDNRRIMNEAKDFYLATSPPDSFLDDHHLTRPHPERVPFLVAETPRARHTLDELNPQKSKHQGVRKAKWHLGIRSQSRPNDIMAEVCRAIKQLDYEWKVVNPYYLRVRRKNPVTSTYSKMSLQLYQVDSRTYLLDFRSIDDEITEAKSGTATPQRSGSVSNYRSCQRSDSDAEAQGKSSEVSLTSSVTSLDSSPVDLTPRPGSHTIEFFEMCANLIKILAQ

Kd [1]: > 30 µM (inactive)
Kd [2]: 0.885 µM (active)
Kd [3]: > 30 µM (inactive)
Kd [4]: > 30 µM (inactive)
Kd [5]: > 30 µM (inactive)
Structure (SMILES): CN1C/C=C/CCOc2cccc(c2)-c2ccnc(n2)Nc2cccc(c2)C1 [ZOTIRACICLIB]
